Test results taken from PMC7614683, “A small molecule PI3Kα activator for cardioprotection and neuroregeneration” (Nature, 2023).

Tests used:
human p110β/p85α (PI3Kβ) = target: T1, human p110β/p85α (PI3Kβ) (Homo sapiens, UniProt P42338); experiment: ADP-Glo in vitro lipid kinase assay, PI3Kβ; format: biochemical
T1 construct: Full-length human p110β/p85α and p110δ/p85α were cloned and expressed in a similar manner; Strep-tag followed by TEV protease site (N, cleaved yes); host or cells: Spodoptera frugiperda Sf9, baculovirus
T1 sequence (P42338 whole entry): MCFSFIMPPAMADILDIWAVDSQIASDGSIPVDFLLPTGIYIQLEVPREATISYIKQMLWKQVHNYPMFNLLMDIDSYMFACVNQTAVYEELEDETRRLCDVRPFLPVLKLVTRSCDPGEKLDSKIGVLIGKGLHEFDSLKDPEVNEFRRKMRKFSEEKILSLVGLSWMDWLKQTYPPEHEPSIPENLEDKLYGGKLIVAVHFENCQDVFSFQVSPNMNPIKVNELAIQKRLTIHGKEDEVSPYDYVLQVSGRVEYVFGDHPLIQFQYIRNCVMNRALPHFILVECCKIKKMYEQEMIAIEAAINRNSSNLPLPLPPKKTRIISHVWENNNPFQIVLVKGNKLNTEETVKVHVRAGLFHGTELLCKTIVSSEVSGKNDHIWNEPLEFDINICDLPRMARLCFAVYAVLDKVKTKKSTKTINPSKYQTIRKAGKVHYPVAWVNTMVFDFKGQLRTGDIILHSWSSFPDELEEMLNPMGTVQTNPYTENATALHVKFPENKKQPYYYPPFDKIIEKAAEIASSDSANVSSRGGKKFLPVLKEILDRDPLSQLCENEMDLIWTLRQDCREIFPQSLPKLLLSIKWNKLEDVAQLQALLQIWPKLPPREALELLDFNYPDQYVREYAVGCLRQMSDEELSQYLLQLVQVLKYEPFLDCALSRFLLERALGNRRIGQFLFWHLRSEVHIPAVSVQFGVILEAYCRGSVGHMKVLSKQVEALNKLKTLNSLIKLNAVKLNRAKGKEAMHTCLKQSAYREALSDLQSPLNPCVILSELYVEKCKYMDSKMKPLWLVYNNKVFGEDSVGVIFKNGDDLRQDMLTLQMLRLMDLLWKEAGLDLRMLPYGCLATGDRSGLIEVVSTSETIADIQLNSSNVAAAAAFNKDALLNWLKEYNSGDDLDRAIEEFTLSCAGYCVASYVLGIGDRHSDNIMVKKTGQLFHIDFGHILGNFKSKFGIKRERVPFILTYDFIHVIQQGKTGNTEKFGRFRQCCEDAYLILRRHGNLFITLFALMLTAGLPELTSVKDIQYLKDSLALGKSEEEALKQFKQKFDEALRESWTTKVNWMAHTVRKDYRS
T1 sequence (P27986 whole entry partner): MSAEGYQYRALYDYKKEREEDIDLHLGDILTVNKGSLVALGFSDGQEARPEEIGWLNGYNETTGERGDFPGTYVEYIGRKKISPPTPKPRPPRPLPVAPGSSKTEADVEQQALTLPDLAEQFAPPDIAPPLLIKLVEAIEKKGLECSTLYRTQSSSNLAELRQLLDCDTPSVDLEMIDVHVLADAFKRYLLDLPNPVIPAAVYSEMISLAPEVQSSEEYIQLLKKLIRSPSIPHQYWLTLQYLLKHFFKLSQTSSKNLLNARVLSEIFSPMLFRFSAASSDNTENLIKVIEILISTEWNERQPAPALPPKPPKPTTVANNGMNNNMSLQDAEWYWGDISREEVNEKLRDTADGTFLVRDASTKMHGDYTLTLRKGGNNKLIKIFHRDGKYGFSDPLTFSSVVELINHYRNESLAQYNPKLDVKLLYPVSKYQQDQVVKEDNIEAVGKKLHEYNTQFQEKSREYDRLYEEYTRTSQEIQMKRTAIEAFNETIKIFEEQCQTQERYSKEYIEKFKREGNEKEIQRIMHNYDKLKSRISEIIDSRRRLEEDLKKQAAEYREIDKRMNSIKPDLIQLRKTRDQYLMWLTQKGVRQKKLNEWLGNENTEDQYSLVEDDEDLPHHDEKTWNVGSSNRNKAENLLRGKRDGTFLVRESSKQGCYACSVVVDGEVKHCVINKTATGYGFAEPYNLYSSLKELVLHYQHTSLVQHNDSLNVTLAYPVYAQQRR
Procedure: Full-length human p110β/p85α and p110δ/p85α were cloned and expressed in a similar manner. Briefly, 5 litres of Spodoptera frugiperda (Sf9) cell culture at a density of 1.0 x 10^6 cells/ml were co-infected with both a p85α-encoding virus and a virus encoding p110β/δ with an N-terminal Strep-tag followed by a tobacco etch virus (TEV) protease site (plasmid OP832 for p110β, plasmid OP833 for p110δ and plasmid of OP809 for p85α). After a 48 h infection at 27°C, cells were harvested and washed with PBS. Cell pellets were then resuspended in Lysis Buffer (20 mM Tris pH 8.0, 150 mM NaCl, 5% glycerol, 2 mM β-mercaptoethanol, 1 EDTA-free protease inhibitor tablet (Roche) per 50 ml of buffer) and sonicated ar 4°C for 7 min in 15 sec intervals followed by a 15 sec wait. […]
For re-screening of HTS hits and routine compound profiling, the reaction mixture contained 2 μl PI3K enzyme, 2 μl compound and/or pY and 2 μl of liposome substrate mixed with ATP. […] Luminescence was read using a Sense (Hidex) plate reader. […]
For characterisation of the effects of 1938 on in vitro PI3K enzymology, all reactions were performed at room temperature with 384 white-polystyrene plates (Corning #3574). […] Data was expressed as velocity (nmol of ADP generated/nmol of enzyme/sec). […] Luminescence was read using a PHERAstar® plate reader with software version 5.41, and analyses were performed using GraphPad Prism 8/9.

PI3Kα H1047R mutant = PI3Kα H1047R mutant (Homo sapiens, UniProt P42336, H1047R); experiment: ADP-Glo catalytic activity, oncogenic mutant H1047R; format: biochemical
Chain of PI3Kα H1047R mutant (P42336 whole entry H1047R): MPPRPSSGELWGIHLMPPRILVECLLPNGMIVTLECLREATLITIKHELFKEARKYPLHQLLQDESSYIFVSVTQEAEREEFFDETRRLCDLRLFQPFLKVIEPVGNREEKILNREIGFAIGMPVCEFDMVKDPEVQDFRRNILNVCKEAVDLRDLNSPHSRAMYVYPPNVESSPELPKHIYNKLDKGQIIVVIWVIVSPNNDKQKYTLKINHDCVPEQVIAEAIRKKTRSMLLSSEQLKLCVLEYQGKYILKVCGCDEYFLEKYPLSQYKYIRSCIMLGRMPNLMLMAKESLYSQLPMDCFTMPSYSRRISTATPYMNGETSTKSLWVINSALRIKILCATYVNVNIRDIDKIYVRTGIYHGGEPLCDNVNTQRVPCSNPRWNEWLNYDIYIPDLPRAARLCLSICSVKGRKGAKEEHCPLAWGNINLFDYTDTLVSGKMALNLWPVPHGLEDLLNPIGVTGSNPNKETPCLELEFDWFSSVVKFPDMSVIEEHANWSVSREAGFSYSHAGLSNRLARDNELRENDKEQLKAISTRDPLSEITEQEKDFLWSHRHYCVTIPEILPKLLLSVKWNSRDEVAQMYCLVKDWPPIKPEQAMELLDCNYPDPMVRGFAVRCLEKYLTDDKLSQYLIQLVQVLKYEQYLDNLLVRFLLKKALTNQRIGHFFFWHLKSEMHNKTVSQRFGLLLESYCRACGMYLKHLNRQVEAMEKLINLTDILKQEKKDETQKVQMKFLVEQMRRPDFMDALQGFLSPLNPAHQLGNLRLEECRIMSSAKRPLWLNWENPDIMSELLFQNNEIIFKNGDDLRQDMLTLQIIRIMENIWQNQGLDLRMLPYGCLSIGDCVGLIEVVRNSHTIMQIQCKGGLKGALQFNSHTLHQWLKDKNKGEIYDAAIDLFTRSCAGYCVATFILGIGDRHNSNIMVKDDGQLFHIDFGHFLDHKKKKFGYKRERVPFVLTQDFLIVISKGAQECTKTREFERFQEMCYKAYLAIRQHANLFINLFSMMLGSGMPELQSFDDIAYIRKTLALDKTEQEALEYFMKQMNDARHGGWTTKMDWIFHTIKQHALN
Chain of PI3Kα H1047R mutant (P27986 whole entry partner): as the sequence (P27986 whole entry partner) above
Procedure: For characterisation of the effects of 1938 on in vitro PI3K enzymology, all reactions were performed at room temperature with 384 white-polystyrene plates (Corning #3574). The final DMSO concentration in the assay was between 0.5%-1.8%. The reaction mixture contained 2 μl PI3K enzyme, 2 μl compound and/or pY and 2 μl of liposome substrate mixed with ATP. ATP was used at a final concentration of 200 μM, unless otherwise stated. The enzyme and compounds were pre-incubated for 10 min prior to addition of substrate. The reaction was allowed to proceed for up to 45 min at room temperature, before addition of 6 μl of ADP-Glo R1 to terminate the reaction. The plate was incubated for 60 min, followed by addition of 12 μl of ADP-Glo R2 and incubated further for 60 min in the dark. Data was expressed as velocity (nmol of ADP generated/nmol of enzyme/sec). ADP-ATP standard curves were performed according to the manufacturer’s instructions. Luminescence was read using a PHERAstar® plate reader with software version 5.41, and analyses were performed using GraphPad Prism 8/9.

CCN1CCN(c2ccc(Nc3cc(Nc4cccc5c4N(C(C)=O)CC5)ccn3)cc2)CC1 [Compound 1938]
activation of PI3Kβ (human p110β/p85α (PI3Kβ)): but not PI3Kβ or PI3Kδ
activation of H1047R mutant (PI3Kα H1047R mutant): levels comparable with stimulation with pY
